Data reported in patent publication US20220304958A1, “SMALL MOLECULE INHIBITORS OF A PROTEIN COMPLEX” (THE REGENTS OF THE UNIVERSITY OF CALIFORNIA, priority 2019, published 2022).
Like-named read-outs stand apart in the source and are kept apart here. Each block holds one compound with its values, some of them ahead of it.

Legend:
[1] = biological target: T1, HEG1-KRIT1 interaction (Homo sapiens, UniProt O00522); test: Flow cytometry assay for the HEG1-KRIT1 FERM domain interaction (competition binding on HEG1 matrix beads); details: read-out: IC50
T1 construct: His6-EGFP-KRIT1 (WT) FERM domain (417-736) and KRIT1 (L717,721A) mutant were cloned into pETM-11; His6 (N); made in house; host or cells: E. coli BL21 Star (DE3)
Protocol: Bead Coupling. SPHERO Neutravidin Polystyrene Particles, […] (Spherotech) were washed twice with wash buffer (20 mM Tris, 150 mM NaCl. pH 7.4 containing 0.01% NP-40, and 1 mM EDTA). Prior to incubation with biotin-tagged HEG 1 cytoplasmic tail protein, an appropriate volume of bead slurry was passivated to inhibit non-specific binding by incubation for 30 minutes at room temperature in reaction buffer containing 0.1% BSA (20 mM Tris, 150 mM NaCl, pH 7.4 0.01% NP-40, 1 mM EDTA, 1 mM DTT, and 0.1% BSA). Passivated beads were collected by centrifugation, resuspended to 3,600 particles/μl in reaction buffer and biotinylated HEG1 tail was added to a final concentration of 150 nM and incubated overnight on a rotator at 4° C. The beads were washed three times by centrifugation with ice-cold reaction buffer to remove unbound HEG1 peptide. Beads were diluted such that a final concentration of 2000 beads/μL were available for addition to assay plates.
Flow cytometry assay. A final volume of 100 μl containing 140 nM EGFP-KRIT1 FERM domain, with 10% DMSO or 10% compounds in DMSO, was incubated for 15 minutes at room temperature on a rotator. 100 μl of beads were added to the mixture for a final volume of 200 μl at 1,000 particles/μl with 70 nM EGFP-KRIT1 and incubated for 15 minutes at room temperature on a rotator. The control beads were: without KRIT1 (minimum signal); with KRIT1 (maximum signal); and with KRIT1 plus 2 μM HEG1 7-mer (positive blocking control). The EGFP fluorescence was measured using a BD Accuri flow cytometer. For screening purposes, the final volume of the reaction was scaled down to 10 μl and samples were processed as previously described (27). For FIGS. 1D-1F, 2B, and 3E, a representative experiment is shown of at the least 3 independent repeats.
Assay plate assembly. Plate assays were performed in 384-well microtiter plates (Greiner Bio-one, #784101). Reaction buffer. HEG1-coupled beads, and EGFP-KRIT-FERM constructs were added using a MultiFlo™ Microplate Dispenser (BioTek Instruments, Inc.). Compounds were added to single-point assay plates pre-loaded with reaction buffer using a Biomek^NX liquid handler (BeckmanCoulter) equipped with a […] pintool (V & P Scientific, Inc.). Compound libraries were dispensed to a final concentration of 10 μM. An equal volume (10 nL) of DMSO was added to the vehicle control wells. Following the addition of library compounds, 5 μL of assay buffer was added and the plates were mixed before addition of 5 μL of the protein-coupled bead mixtures; Plates were protected from light and incubated on a rotator for 15 minutes at room temperature. Binding of EGFP-KRIT to HEG1 coupled beads was evaluated using an Accuri C6 flow cytometer.
Data Acquisition. Assay plates were sampled using the HyperCyt™ high throughput flow cytometry platform (Intellicyt; Albuquerque, N. Mex.). During sampling, the probe moves from well to well and samples 1-2 μL from each well pausing 0.4 sec in the air before sampling the next well. The resulting sample stream consisting of 384 separated samples is delivered to an Accuri C6 flow cytometer (BD Biosciences; San Jose, Calif.). Plate data are acquired as time-resolved files that are parsed by software-based well identification algorithms and merged with compound library files. Plate performance was validated using the Z-prime calculation (28).
Compounds that satisfied hit selection criteria in the primary screen were cherry-picked from compound storage plates and tested to confirm activity and determine potency. Dose response data points were fitted by Prism software (GraphPad Software Inc., San Diego, Calif.) using nonlinear least-squares regression in a sigmoidal dose-response model with variable slope, also known as the 4-parameter logistic equation.

[2] = log P; type: physicochemical; details: method not stated (FIG. 2A)
[3] = Aqueous solubility in assay buffer; type: physicochemical
[4] = system: HUVEC; test: Genome-wide RNA sequencing of HUVEC; type: cell-based, human; details: for effects on gene expression by RNA-Seq: same conditions (75 μM, 24 h)
Protocol: Cell culture. hCMEC/D3 cells at passages 30-37 were grown to confluence on collagen-coated plates and cultured using in EGM-2 MV medium and supplemented with complements obtained from the manufacturer (Lonza) as previously reported (31). HUVEC (Lonza) at passages 4-7 were grown to confluence on gelatin-coated plates and maintained using complete EGM-2 media (Lonza). HKi2, 10 mM in DMSO, was maintained at room temperature for 30 min rotating before use. Cells were then treated with HKi2 at the concentrations and times indicated for each experiment. Vehicle cells were treated with the same volume of DMSO as used with HKi2. Cells were maintained at 37° C. in 95% air and 5% CO2. Genome-wide RNA sequencing. The quantity (ND-1000 spectrophotometer; NanoDrop Technologies) and quality (Bioanalyzer; Agilent) of total RNA were analyzed. Only RNA with a RNA integrity number (RIN) greater than 8 RNA was used for library preparation. Libraries were generated using Illumina's TruSeq Stranded mRNA Sample Prep kit using 400 ng RNA. RNA libraries were multiplexed and sequenced with 100-bp […] single-end reads (SR100) to a depth of 30 million reads per sample on an Illumina HiSeq2500. Fastq files from RNA-seq experiments were mapped to the human genome (GRCh primary assembly release 96) using Hisat2 with default parameters. All bioinformatics analyses were conducted in R using the […] package RNAseq workflows. Differential gene expression analysis was conducted with EdgeR.

[5] = system: KLF4 and KLF2 mRNA; test: KLF4 and KLF2 mRNA expression in hCMEC/D3 cells by qPCR; type: cell-based, human
Protocol: (§1) Cell culture. hCMEC/D3 cells at passages 30-37 were grown to confluence on collagen-coated plates and cultured using in EGM-2 MV medium and supplemented with complements obtained from the manufacturer (Lonza) as previously reported (31). HUVEC (Lonza) at passages 4-7 were grown to confluence on gelatin-coated plates and maintained using complete EGM-2 media (Lonza). HKi2, 10 mM in DMSO, was maintained at room temperature for 30 min rotating before use. Cells were then treated with HKi2 at the concentrations and times indicated for each experiment. Vehicle cells were treated with the same volume of DMSO as used with HKi2. Cells were maintained at 37° C. in 95% air and 5% CO2. RNA extraction and qRT-PCR. HUVECs total RNA were isolated using MagMAXTM-96 for Microarrays Total RNA Isolation Kit, according to the manufacturer's protocol (Thermo Fisher Scientific Cat #AM1839). qPCR analysis, single-stranded cDNA was produced from 10 ng RNA isolated from HUVECs using PrimeScriptTM RT Master Mix according to the manufacturer's protocol (Takara Cat. #R[…]). The levels of genes were analyzed using iTaqTM Universal SYBR Green (BioRad Cat #1725122) and thermal cycler (CFX96 Real-Time System; Bio-Rad) according to the manufacturer's protocol. Actin mRNA levels was used as internal control, and the 2^-ΔΔCT method was used for data analysis.

[6] = system: KLF4 and KLF2 mRNA; test: KLF4 and KLF2 mRNA expression in HUVEC by qPCR; type: cell-based, human; details: dose response, 24 hours
Protocol: as §1

[7] = system: PARD3 binding to HEG1; test: PARD3 pulldown assay with HEG1 matrix; design: species or system human (HUVEC lysates); details: 35 μM compound, HUVEC lysates, HEG1 WT matrix
Protocol: PARD3 pulldown assay. Neutravidin agarose beads (Thermo Fisher) matrix with wild-type HEG1 cytoplasmic tail (1274-1381) and ΔYF (1274-1379) were previously described (5, 26). HUVEC were collected in cold lysis buffer (50 mM Tris-HCl, pH 7.4, 100 mM NaCl, 5 mM MgCl2, 0.5% NP-40) plus protease inhibitor cocktail (Roche). A total of 20 μl of HEG1 matrix was added to 600 μg of clarified lysates and incubated at 4° C. overnight while rotating. All conditions contained either vehicle DMSO, 35 μM HKi2 or 35 μM 2-hydroxy-1-naphthoic acid. After three washes with cold lysis buffer, beads were mixed with sample buffer and proteins were separated by SDS-PAGE. Bound PARD3 was detected by using polyclonal Rabbit anti-PARD3 (Millipore, 07-330) antibody.

[8] = system: PI3K/Akt signaling; test: PI3K/Akt signaling in hCMEC/D3 cells by Western blot; type: cell-based, human; details: hCMEC/D3, 50 μM, 1 h
Protocol: Cell culture. hCMEC/D3 cells at passages 30-37 were grown to confluence on collagen-coated plates and cultured using in EGM-2 MV medium and supplemented with complements obtained from the manufacturer (Lonza) as previously reported (31). HUVEC (Lonza) at passages 4-7 were grown to confluence on gelatin-coated plates and maintained using complete EGM-2 media (Lonza). HKi2, 10 mM in DMSO, was maintained at room temperature for 30 min rotating before use. Cells were then treated with HKi2 at the concentrations and times indicated for each experiment. Vehicle cells were treated with the same volume of DMSO as used with HKi2. Cells were maintained at 37° C. in 95% air and 5% CO2. Western blotting and immunoprecipitation. […] Cell lysates were spun at 20,000×g for 15 minutes at 4° C. The PI3 Kinase was immunoprecipitated using the mouse monoclonal antibody as described in the manufacturer instructions and supernatants were stored at -80° C. Samples were resolved on 4-12% gradient gel and blotted using specific antibodies, as indicated. Band intensity was determined using a Li-Cor system and values obtained for phosphoproteins were normalized to the total protein in the same sample. Antibodies to phospho-Akt-Ser473 (clone: 193H12; rabbit mAb; #4058; 1:250), Akt (clone: 40D4; mouse mAb; #2920; 1:500), phospho-PI3 Kinase p85 […] (rabbit polyclonal; #4228; 1:500) were from Cell Signaling. […]

[9] = system: klf2a; test: klf2a reporter Tg(klf2a:H2B-EGFP) zebrafish embryos; type: in vivo; details: 4 μM, 4 h, added at 26 hpf, imaged at 30 hpf
Text: Zebrafish. A previously reported transgenic zebrafish line Tg(klf2a:H2B-EGFP) was used to monitor the expression of klf2a (32, 33). […] At 30 hpf, these treated embryos were scanned for EGFP expression by Zeiss LSM 880 Airiscan.

[10] = Table 2, flow cytometry-screening assay, NI = no inhibition detected up to 500 μM

T1 sequence (O00522 417-736): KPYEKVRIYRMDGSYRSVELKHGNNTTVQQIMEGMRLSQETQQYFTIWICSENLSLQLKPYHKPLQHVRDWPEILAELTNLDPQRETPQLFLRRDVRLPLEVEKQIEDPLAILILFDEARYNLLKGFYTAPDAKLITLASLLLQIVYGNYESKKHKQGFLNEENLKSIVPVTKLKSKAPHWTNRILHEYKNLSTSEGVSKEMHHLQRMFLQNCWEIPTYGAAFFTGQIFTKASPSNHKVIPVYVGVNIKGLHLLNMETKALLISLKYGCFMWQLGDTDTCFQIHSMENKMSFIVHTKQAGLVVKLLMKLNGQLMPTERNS

IC50 ([1]; inhibition of the HEG1-KRIT1 interaction, flow cytometry assay): ~10 µM
logP [2]: 5.7
solubility ([3]; assay buffer, aqueous buffer, in the buffer conditions of the assay): < 50 µM
Compound: CC(NC(=O)c1ccccc1N=Cc1c(O)ccc2ccccc12)c1ccccc1 (centres unmarked) [Sirtinol (Hki1), 2-[[(2-hydroxy-1-naphthalenyl)methylene]amino]-N-(1-phenylethyl)-benzamide, reference compound]

IC50 [1, 10]: > 500 µM
Compound: Oc1ccc2ccccc2c1 [Compound 10, naphthalene-2-ol]
effects on gene expression by RNA-Seq [4]: no significant effects

PARD3 binding to HEG1 [7]: no effects
solubility in aqueous solution ([3]; qualitative, compared with HKi1): largely improved
Compound: O=Cc1c(O)ccc2ccccc12 [2-hydroxy-1-naphtaldehyde (Hki2), 2-hydroxy-1-naphthaldehyde]
KLF4 and KLF2 mRNA levels ([5]; hCMEC/D3, 25 μM, 12 h): upregulated
KLF2 upregulation, fold increase ([5]; hCMEC/D3, 50 μM, 4 h): ~1.5 fold
KLF4 upregulation, fold increase ([5]; hCMEC/D3, 50 μM, 4 h): ~3.5 fold
KLF2 mRNA levels, fold increase ([5]; hCMEC/D3, 50 μM, 12 h): ~2.3 fold
KLF4 mRNA levels, fold increase ([5]; hCMEC/D3, 50 μM, 12 h): ~6.5 fold
KLF4 levels, fold increase ([5]; hCMEC/D3, 50 μM, 24 h): ~6 fold
KLF4 and KLF2 mRNA levels [6]: upregulated
increase in Akt activation (pAkt-S473) ([8]; Western blot): 2.2 fold
increase in PI3K activity ([8]; phospho-p85): 2 fold
nuclear EGFP (klf2a reporter) in arterial and venous endothelium [9]: increase
VEGFA gene expression ([4]; 75 μM, 24 h, RNA-seq): upregulation
genes differentially expressed between treatment and vehicle control ([4]; 75 μM, 24 h, corrected P<0.05, ≥2.5-fold change): 457 genes
CCL2 (Monocyte chemoattractant protein) expression, ratio experimental/control FPKM ([4]; 75 μM, RNA-Seq, n=3): −7.95
CXCR4 (C-X-C chemokine receptor type 4) expression, ratio experimental/control FPKM ([4]; 75 μM, RNA-Seq, n=3): −4.41
KLF2 expression, ratio experimental/control FPKM ([4]; 75 μM, RNA-Seq, n=3): 3.07
KLF4 expression, ratio experimental/control FPKM ([4]; 75 μM, RNA-Seq, n=3): 3.89
THBD (Thrombomodulin) expression, ratio experimental/control FPKM ([4]; 75 μM, RNA-Seq, n=3): 8.34
THBSI (Thrombospondin 1) expression, ratio experimental/control FPKM ([4]; 75 μM, RNA-Seq, n=3): −5.78

Compound: O=C(O)c1c(O)ccc2ccccc12 [Compound 9, 2-hydroxy-1-naphthoic acid]
KLF4 or KLF2 elevation ([5]; hCMEC/D3, 25 μM, 4 hours): did not elevate
IC50 [1, 10]: > 500 µM
PARD3 binding to HEG1 [7]: no effects
effects on gene expression by RNA-Seq [4]: no significant effects
